Measured values taken from patent US20030130336A1, “Method of determining the activity of a central nervous system drug on striatal dopamine transporter populations” (Pfizer Inc., priority 2002, published 2003).
Structures can show the parent of a compound that is named as a salt.

Target: T1, dopamine transporters (DAT) in the striatal nuclei (Homo sapiens, UniProt Q01959)
T1 construct: from tissue; host or cells: striatum (caudate and putamen) of living volunteers, imaged in vivo by SPECT
Experiment: [123I]β-CIT SPECT imaging of striatal DAT binding (V3″ ratio)
Type: in vivo

T1 sequence (Q01959 whole entry): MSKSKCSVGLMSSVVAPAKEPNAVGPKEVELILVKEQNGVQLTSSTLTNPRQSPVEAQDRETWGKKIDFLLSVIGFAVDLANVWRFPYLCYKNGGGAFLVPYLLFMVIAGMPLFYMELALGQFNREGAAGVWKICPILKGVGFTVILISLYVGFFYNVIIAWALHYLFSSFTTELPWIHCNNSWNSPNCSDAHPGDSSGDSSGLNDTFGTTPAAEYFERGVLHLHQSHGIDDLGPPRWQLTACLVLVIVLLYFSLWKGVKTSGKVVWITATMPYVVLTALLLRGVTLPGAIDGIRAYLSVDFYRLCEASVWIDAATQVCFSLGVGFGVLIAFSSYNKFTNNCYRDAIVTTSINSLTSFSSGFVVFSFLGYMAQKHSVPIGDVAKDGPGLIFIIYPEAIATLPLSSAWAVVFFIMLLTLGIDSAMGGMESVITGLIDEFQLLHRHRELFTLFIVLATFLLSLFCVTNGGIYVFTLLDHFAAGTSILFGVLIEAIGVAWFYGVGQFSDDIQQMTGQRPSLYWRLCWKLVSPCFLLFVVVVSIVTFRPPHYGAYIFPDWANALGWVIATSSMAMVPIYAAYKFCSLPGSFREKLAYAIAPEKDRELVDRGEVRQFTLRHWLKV

## CC(NC(C)(C)C)C(=O)c1cccc(Cl)c1 (stereo not drawn) [bupropion hydrochloride]
striatum, specific to non-specific [123I]β-CIT binding, Day 8, Group 1 bupropion HCl SR 100 mg po qAM, Group 2 citalopram 20 mg po BID, days 1-8, healthy volunteers
  St-V3″ (Mean ± SD), Scan 2: 7.42 ± 1.13
striatum, Day 16, Group 1 bupropion HCl SR 100 mg po BID days 9-16, Group 2 citalopram 20 mg po BID plus bupropion HCl SR 100 mg qAM days 9-16
  St-V3″ (Mean ± SD), Scan 3: 7.37 ± 1.69
Versus baseline Scan 1, RMANOVA, paired t-test with Bonferroni correction
  change in striatal DAT binding: did not lead to any significant changes
